{"source": "ChEMBL document CHEMBL1201862", "about": "“PubChem BioAssay data set” (2004)", "key": {"[1]": {"assay": "HepG2 cell cytotoxicity, dose response, cytotoxicity control, cherry-picked samples (AID 1159577)", "assay_type": "functional, cell-based"}, "[2]": {"assay": "P. falciparum Dd2 growth inhibitors, dose response, SYBR Green, cherry-picked samples (AID 1159567)", "assay_type": "functional, cell-based"}, "HEK293": {"tested_on": "HEK293", "assay": "inhibitors of LMP1-driven NF-kB reporter, dose response, cell-based, HEK293, luciferase, cherry-pick (AID 588343)", "assay_type": "functional", "conditions": "Homo sapiens"}, "[3]": {"assay": "P. falciparum Dd2 growth inhibitors, dose response, SYBR Green, dry powder samples (AID 1159566);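 further: potency for growth inhibition with lower SYBR green DNA signal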", "assay_type": "functional, cell-based"}, "[4]": {"assay": "P. falciparum 3D7-ScDHODH growth inhibitors, dose response, SYBR Green, dry powder samples (AID 1159570);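 further: parasite growth measured after 72 hours of compound exposure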", "assay_type": "functional, cell-based"}, "[5]": {"assay": "P. falciparum ATP4 D1247Y mutant growth inhibitors, dose response, NITD609-resistant line, SYBR Green, dry powder (AID 1159571);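 further: parasites synchronized at ring stage by sorbitol before testing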", "assay_type": "functional, cell-based"}, "[6]": {"target": "T1, Corticotropin-releasing factor receptor 2/Corticotropin-releasing factor-binding protein (Homo sapiens, UniProt P24387+Q13324)", "T1 sequence (Q13324 whole entry)": "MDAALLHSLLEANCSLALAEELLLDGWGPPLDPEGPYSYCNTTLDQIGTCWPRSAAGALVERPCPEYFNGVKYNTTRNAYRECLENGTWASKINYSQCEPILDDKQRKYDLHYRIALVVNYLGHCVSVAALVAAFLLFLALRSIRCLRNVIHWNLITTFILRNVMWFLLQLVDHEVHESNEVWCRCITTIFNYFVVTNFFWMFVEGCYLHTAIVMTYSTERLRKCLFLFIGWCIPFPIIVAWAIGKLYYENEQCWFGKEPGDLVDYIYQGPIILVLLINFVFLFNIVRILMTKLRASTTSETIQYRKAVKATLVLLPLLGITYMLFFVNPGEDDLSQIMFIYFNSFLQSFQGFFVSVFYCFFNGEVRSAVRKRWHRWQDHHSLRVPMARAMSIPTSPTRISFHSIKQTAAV", "T1 sequence (P24387 whole entry)": "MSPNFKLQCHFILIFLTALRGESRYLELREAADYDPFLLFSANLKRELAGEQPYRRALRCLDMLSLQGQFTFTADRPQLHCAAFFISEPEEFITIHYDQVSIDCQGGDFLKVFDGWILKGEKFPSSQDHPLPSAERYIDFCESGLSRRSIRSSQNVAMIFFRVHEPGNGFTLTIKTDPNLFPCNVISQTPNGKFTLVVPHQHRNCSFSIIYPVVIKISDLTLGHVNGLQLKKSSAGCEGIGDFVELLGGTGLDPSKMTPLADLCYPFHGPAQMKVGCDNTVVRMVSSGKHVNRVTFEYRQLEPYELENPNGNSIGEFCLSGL", "assay": "Dose Response confirmation of uHTS hits for small molecule antagonists of the CRF-binding protein and CRF-R2 receptor complex.", "assay_type": "functional", "conditions": "read-out: IC50_Mean"}, "Protein skinhead-1": {"target": "T2, Protein skinhead-1 (Caenorhabditis elegans, UniProt P34707)", "T2 sequence (P34707 whole entry)": "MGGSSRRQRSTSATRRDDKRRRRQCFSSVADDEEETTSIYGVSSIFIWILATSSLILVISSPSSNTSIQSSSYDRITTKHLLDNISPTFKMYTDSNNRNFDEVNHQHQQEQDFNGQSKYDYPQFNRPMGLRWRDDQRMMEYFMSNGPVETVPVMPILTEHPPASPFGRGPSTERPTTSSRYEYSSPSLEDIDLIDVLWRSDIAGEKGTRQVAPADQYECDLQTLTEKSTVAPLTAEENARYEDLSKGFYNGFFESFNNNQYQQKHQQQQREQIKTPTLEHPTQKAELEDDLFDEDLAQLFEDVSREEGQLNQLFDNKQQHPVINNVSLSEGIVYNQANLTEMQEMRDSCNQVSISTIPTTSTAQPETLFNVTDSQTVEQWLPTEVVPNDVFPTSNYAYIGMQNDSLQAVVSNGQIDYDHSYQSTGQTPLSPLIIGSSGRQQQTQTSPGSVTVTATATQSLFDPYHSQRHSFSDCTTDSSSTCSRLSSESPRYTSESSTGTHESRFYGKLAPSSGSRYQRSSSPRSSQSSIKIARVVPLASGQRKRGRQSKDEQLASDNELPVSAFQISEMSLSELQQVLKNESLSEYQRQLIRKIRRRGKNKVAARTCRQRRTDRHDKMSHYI", "assay_type": "functional"}, "[7]": {"assay": "CRF-BP/CRF-R2 complex antagonists, dose response, cell-based, uHTS hits, 384-well (AID 651639)", "assay_type": "functional, Homo sapiens", "conditions": "read-out: IC50_Mean"}, "[8]": {"target": "T1, Corticotropin-releasing factor receptor 2/Corticotropin-releasing factor-binding protein", "assay": "activators of CRF receptor 2 with binding protein – uHTS hits, confirmation (AID 602473)", "assay_type": "functional", "conditions": "read-out: EC50_Mean"}, "H9c2": {"tested_on": "H9c2", "assay": "cells", "assay_type": "functional, cell-based", "conditions": "Rattus norvegicus, H9c2, Myocardium"}, "[9]": {"assay": "inhibitors of intracellular T. cruzi replication, confirmation, NIH3T3 host cells, beta-gal luminescence (AID 2044);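 further: luminescent beta-galactosidase reporter signal from transgenic T. cruzi replicating inside host cells; inhibitors lower the luminescence signal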", "assay_type": "functional, cell-based"}, "[10]": {"assay": "control 3'UTR Renilla luciferase suppression, dose response, counter-screen for Shn3 inhibitor project, cell-based, Clone20-Shn3RL, cherry-picked (AID 624133)", "assay_type": "functional"}, "[11]": {"assay": "cytotoxicity toward NIH3T3 fibroblasts, dose response, counter-screen, cell-based, ATP luminescence, mouse fibroblasts (AID 2010);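 further: cells exposed to compound for about 90 hours before reading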", "assay_type": "functional"}, "[12]": {"assay": "Shn3 3'UTR reporter inhibitors, dose response, cell-based, Clone20 osteoblasts, firefly luciferase, cherry-picked (AID 624132)", "assay_type": "functional"}, "[13]": {"assay": "HepG2 cell cytotoxicity, dose response, cytotoxicity control for Shn3 inhibitor project, CellTiter-Glo, cherry-picked (AID 624134)", "assay_type": "functional, cell-based"}, "Vero [14]": {"tested_on": "Vero", "assay": "cells", "assay_type": "functional, cell-based", "conditions": "Chlorocebus sabaeus"}, "Vero [15]": {"tested_on": "Vero", "assay": "cells", "assay_type": "functional", "conditions": "Chlorocebus sabaeus"}, "Paired box protein Pax-8": {"target": "Paired box protein Pax-8 (Homo sapiens, UniProt Q06710)", "sequence (Q06710 whole entry)": "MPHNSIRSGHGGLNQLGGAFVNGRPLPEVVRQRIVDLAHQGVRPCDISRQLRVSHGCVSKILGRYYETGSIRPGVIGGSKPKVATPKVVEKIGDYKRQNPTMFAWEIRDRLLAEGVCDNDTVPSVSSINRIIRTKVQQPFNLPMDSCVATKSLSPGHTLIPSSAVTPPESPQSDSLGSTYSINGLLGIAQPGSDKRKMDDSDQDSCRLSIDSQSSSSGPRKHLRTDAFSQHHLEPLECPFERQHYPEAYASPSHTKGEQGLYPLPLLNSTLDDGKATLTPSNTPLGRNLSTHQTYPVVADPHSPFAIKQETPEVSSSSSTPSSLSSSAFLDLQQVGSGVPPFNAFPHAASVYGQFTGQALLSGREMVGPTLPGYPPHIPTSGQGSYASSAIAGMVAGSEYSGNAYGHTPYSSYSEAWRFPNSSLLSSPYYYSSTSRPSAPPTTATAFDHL", "assay": "inhibitors of PAX8-driven TPO luciferase reporter, dose response, RMG-I cells, cherry-pick (AID 687027);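 further: luciferase reporter driven by Pax8 target thyroperoxidase promoter measured by SteadyGlo luminescence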", "assay_type": "functional, cell-based"}, "[16]": {"target": "T3, High affinity choline transporter 1 (Homo sapiens, UniProt Q9GZV3)", "T3 sequence (Q9GZV3 whole entry)": "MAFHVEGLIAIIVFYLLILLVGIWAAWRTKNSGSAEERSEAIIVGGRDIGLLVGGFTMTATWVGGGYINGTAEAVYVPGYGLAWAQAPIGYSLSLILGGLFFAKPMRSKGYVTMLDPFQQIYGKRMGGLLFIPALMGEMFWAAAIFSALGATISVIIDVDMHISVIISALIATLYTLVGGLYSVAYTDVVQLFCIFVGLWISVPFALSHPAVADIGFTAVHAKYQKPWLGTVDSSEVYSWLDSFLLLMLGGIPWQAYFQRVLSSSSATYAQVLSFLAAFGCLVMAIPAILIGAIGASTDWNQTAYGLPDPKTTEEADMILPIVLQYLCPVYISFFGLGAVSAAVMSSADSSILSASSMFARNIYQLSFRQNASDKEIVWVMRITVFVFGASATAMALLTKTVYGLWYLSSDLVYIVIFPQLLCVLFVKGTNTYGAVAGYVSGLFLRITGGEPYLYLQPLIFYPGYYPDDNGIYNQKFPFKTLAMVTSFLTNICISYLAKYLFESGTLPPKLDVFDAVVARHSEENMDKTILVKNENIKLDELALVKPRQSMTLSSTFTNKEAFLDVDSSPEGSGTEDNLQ", "assay": "CHT inhibitors, dose response, cell-based, 5-point CRC, membrane potential dye (AID 504840)", "assay_type": "functional"}, "Genome polyprotein": {"target": "Genome polyprotein (dengue virus type 2, UniProt P29990)", "sequence (P29990 2492-3391 limits assumed)": "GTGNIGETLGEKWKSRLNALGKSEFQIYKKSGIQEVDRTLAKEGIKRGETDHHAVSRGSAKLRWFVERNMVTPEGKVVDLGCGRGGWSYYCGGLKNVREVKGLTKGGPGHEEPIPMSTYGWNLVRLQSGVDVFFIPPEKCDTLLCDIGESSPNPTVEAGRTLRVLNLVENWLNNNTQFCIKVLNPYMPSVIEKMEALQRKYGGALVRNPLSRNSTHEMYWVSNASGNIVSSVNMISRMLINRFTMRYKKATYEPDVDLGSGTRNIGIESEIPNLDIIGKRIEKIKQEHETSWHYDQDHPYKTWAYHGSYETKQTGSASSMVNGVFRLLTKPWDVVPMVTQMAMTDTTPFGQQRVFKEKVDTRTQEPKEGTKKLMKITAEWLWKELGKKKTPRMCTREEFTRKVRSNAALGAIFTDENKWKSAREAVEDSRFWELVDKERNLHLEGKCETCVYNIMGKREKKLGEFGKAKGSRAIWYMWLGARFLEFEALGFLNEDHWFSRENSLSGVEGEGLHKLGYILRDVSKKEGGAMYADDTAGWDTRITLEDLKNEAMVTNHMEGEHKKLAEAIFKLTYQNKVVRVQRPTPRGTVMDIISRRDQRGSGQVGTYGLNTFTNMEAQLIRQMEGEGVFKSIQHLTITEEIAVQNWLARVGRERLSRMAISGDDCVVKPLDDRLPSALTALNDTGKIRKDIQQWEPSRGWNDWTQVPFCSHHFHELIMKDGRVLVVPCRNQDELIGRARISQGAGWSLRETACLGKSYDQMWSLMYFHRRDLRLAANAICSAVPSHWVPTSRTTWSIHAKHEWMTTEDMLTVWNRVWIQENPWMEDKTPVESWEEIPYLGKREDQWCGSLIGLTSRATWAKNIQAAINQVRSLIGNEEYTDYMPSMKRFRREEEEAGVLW", "assay": "Dengue-2 NS5 methyltransferase inhibitors, primary screen, biochemical, confirmation dose response (AID 588689)", "assay_type": "functional"}}, "note": "Calls of active or inactive are those of the source.", "data": [{"smiles": "COc1ccc(NC(=O)Nc2cccc3c2O[C@H](CN(C)Cc2ccc(-c4ccccc4)cc2)[C@@H](C)CN([C@@H](C)CO)C3=O)cc1", "values": [{"measurement": "AC50", "setting": "[1]", "value": "16.2 µM (active)"}, {"measurement": "AC50", "setting": "[2]", "value": "3.25 µM (active)"}]}, {"smiles": "CC1(CCCc2ccc(N(CCCl)CCCl)cc2)NC(=O)NC1=O", "note": "(configuration not stated)", "values": [{"measurement": "AC50", "setting": "HEK293", "value": "4.51 µM (active)"}]}, {"smiles": "COc1ccc(C#Cc2ccc3c(c2)O[C@@H](CN(C)S(=O)(=O)c2ccccc2F)[C@@H](C)CN([C@H](C)CO)S3(=O)=O)cc1", "values": [{"measurement": "AC50", "setting": "[3]", "value": "1.07 µM (active)"}, {"measurement": "AC50", "setting": "[4]", "value": "1.43 µM (active)"}, {"measurement": "AC50", "setting": "[5]", "value": "1.16 µM (active)"}, {"measurement": "AC50", "setting": "[2]", "value": "1.23 µM (active)"}]}, {"smiles": "O=c1oc2ccc3ccccc3c2cc1-c1nnc(-c2ccccc2)o1", "values": [{"measurement": "IC50", "setting": "[6]", "value": "< 0.368 µM (active)"}, {"measurement": "IC50", "setting": "Protein skinhead-1", "value": "> 100 µM (inactive)"}, {"measurement": "IC50", "setting": "[7]", "value": "0.39 µM (active)"}, {"measurement": "EC50", "setting": "[8]", "value": "> 53 µM (inactive)"}, {"measurement": "IC50", "setting": "H9c2", "value": "> 79 µM (inactive)"}]}, {"smiles": "CCCc1nc2ccc(Br)cc2c(=O)n1-c1ccc([N+](=O)[O-])c(C(F)(F)F)c1", "values": [{"measurement": "EC50", "setting": "[9]", "value": "2 µM (active)"}, {"measurement": "AC50", "setting": "[10]", "value": "11.7 µM (active)"}, {"measurement": "EC50", "setting": "[11]", "value": "> 60 µM (not active)"}, {"measurement": "AC50", "setting": "HEK293", "value": "29.2 µM (active)"}, {"measurement": "AC50", "setting": "[12]", "value": "15.7 µM (active)"}, {"measurement": "AC50", "setting": "[13]", "value": "7.4 µM (active)"}]}, {"smiles": "CC(=O)O[C@H]1C[C@H](O[C@H]2[C@@H](O)C[C@H](O[C@H]3[C@@H](O)C[C@H](O[C@H]4CC[C@@]5(C)[C@H](CC[C@@H]6[C@@H]5CC[C@]5(O)[C@@H](C7=CC(=O)OC7)CC[C@]65O)C4)O[C@@H]3C)O[C@@H]2C)O[C@H](C)[C@H]1O[C@@H]1O[C@H](CO)[C@@H](O)[C@H](O)[C@H]1O", "values": [{"measurement": "IC50", "setting": "Vero [14]", "value": "< 0.05 µM (active)"}, {"measurement": "CC50", "setting": "Vero [15]", "value": "1.78 µM (active)"}, {"measurement": "AC50", "setting": "Paired box protein Pax-8", "value": "1.98 µM (active)"}]}, {"smiles": "N#C/C(=N\\Nc1ccccc1Cl)C(=O)c1ccccc1", "values": [{"measurement": "IC50", "setting": "[6]", "value": "10.2 µM (active)"}, {"measurement": "IC50", "setting": "[7]", "value": "> 20 µM (inactive)"}, {"measurement": "EC50", "setting": "[8]", "value": "> 53 µM (inactive)"}]}, {"smiles": "NC(=O)c1ccc(NCc2ccco2)c([N+](=O)[O-])c1", "values": [{"measurement": "IC50", "setting": "[6]", "value": "5.79 µM (active)"}, {"measurement": "IC50", "setting": "[7]", "value": "3.57 µM (active)"}, {"measurement": "EC50", "setting": "[8]", "value": "> 53 µM (inactive)"}]}, {"smiles": "Cc1nn(C(C)C(=O)NC(C)CCc2ccccc2)c(=O)c2cc3occc3n12", "note": "(configuration not stated)", "values": [{"measurement": "IC50", "setting": "[16]", "value": "17.4 µM (active)"}]}, {"smiles": "COc1cccc(/C=C2\\SC(=S)N(NS(=O)(=O)c3ccccc3)C2=O)c1OC", "values": [{"measurement": "IC50", "setting": "[6]", "value": "22.3 µM (active)"}, {"measurement": "IC50", "setting": "[16]", "value": "0.692 µM (active)"}, {"measurement": "IC50", "setting": "Genome polyprotein", "value": "41.1 µM (active)"}, {"measurement": "EC50", "setting": "[8]", "value": "> 53 µM (inactive)"}]}, {"smiles": "OC[C@@H]1Nc2ccc(C#Cc3ccccc3)cc2[C@@H]2[C@H]1CCN2Cc1nccs1", "values": [{"measurement": "AC50", "setting": "[3]", "value": "3.5 µM (active)"}, {"measurement": "AC50", "setting": "[1]", "value": "> 39 µM (inactive)"}, {"measurement": "AC50", "setting": "[4]", "value": "3.71 µM (active)"}, {"measurement": "AC50", "setting": "[5]", "value": "3.32 µM (active)"}, {"measurement": "AC50", "setting": "[2]", "value": "2.95 µM (active)"}]}]}
